Assays:
DNA polymerase α = molecular target: T1, DNA polymerase α (Homo sapiens, UniProt P09884); conditions: incorporated 5'-monophosphate; cited from earlier work
T1 sequence (P09884 1-1462): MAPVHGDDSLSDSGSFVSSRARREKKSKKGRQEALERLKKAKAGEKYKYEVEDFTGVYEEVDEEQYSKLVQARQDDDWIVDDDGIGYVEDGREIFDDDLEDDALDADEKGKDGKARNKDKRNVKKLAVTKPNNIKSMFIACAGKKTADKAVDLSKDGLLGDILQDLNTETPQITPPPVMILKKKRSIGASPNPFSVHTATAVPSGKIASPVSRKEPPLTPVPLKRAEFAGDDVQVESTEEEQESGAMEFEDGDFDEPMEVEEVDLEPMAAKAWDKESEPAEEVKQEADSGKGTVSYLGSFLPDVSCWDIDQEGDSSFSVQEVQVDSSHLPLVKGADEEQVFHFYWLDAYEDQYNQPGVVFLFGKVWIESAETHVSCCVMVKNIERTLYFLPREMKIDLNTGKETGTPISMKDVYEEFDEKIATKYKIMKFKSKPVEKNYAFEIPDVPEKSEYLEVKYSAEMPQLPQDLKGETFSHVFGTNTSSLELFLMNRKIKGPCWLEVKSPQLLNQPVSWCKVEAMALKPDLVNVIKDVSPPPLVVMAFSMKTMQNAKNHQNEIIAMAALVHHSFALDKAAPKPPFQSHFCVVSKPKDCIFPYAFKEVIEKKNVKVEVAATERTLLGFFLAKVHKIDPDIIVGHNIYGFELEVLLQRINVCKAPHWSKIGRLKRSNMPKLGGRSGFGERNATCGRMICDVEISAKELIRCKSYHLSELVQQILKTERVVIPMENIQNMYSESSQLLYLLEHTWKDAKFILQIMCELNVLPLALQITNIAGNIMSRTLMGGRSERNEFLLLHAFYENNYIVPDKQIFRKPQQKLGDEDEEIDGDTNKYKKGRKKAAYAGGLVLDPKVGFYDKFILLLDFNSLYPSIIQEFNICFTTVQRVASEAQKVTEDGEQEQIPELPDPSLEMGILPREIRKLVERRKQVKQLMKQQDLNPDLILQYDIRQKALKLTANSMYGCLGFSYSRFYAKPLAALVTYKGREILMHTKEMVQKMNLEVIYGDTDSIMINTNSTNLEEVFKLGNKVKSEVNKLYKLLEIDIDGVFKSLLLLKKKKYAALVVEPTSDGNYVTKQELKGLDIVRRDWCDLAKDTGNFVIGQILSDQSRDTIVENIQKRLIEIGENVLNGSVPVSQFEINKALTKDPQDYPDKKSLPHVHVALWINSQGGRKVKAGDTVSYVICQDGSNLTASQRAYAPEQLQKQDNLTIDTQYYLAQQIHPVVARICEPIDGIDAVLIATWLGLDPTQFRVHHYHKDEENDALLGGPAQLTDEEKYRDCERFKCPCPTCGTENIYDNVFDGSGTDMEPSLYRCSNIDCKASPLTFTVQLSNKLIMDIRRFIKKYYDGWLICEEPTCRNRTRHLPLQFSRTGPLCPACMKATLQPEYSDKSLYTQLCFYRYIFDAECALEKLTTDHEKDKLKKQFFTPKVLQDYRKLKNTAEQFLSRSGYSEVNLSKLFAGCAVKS

HIV (strain IIIB) = assay: Activity against HIV in cell culture; format: cell-based; conditions: CEM or MT cell lines in culture

SMILES	inhibition of further elongation of the DNA chain after incorporation by DNA polymerase α (DNA polymerase α)	activity against HIV (strain IIIB) (HIV (strain IIIB))
Nc1nc(Cl)nc2c1ncn2[C@H]1C[C@H](O)[C@@H](COP(=O)(O)O)O1 [2-chloro-2'-deoxyadenosine 5'monophosphate]	did not inhibit the further elongation of the DNA chain to the degree that was seen with the incorporation of either	
Nc1nc(F)nc2c1ncn2[C@@H]1O[C@H](CO)C[C@@H]1F [compound 4b, 2-Fluoro-9-(2-3-dideoxy-2-fluoro-β-D-arabinofuranosyl)-9H-purin-6-amine]		slight activity
